Measurements reported in patent US8507219B2, “Method of treating inflammation with statins” (MUSC Foundation for Research Development, priority 1997, dated 2013).
“Also recorded” adds a separate entry of the source.

Tests used:
[1] = test system: ceramide production in rat primary astrocytes; assay: Degradation of sphingomyelin to ceramide (DAG kinase assay, HPTLC) in rat primary astrocytes; assay type: cell-based; conditions: 10 mM NAC or 100 μM PDTC 1 h before TNF-α or IL-1β (50 ng/ml), diamide 0.5 mM or aminotriazole 5 mM
Procedure: Lipid extraction Approximately 1.0×10^6 cells were exposed to different cytokines in the presence or absence of antioxidants for different periods and lipids were extracted according to the methods described by Welsh (1996).
Quantification of sphingomyelin by HPTLC and densitometry Sphingomyelin was separated from total lipid extracts by HPTLC (LPK-plates from Whatman Labsales, USA) as described (Ganser et al., 1988) for phospholipids with the modification, that the plate was overrun for 30 min during its development and was dried overnight in vacuum desicator. Sphingomyelin was quantitated by densitometric scanning using Imaging Densitometer (Model GS-670; Bio-Rad, USA) and software provided with the instrument by the manufacturer.
Quantification of ceramide levels by diacylglycerol kinase assay Ceramide content was quantified essentially according to Priess et al. using diacylglycerol (DAG) kinase and [γ-^32P]ATP (Priess et al., 1986). Briefly, dried lipids were solubilized in 20 μl of an octyl β-D-glucoside/cardiolipin solution (7.5% octyl β-D-glucoside, 5 mM cardiolipin in 1 mM DTPA) by sonication in a sonicator bath. […] The labeled ceramide 1-phosphate was resolved with a solvent system consisting of methyl acetate: n-propanol:chloroform:methanol:0.25% KCl in water:acetic-acid (100:100:100:40:36:2). A standard sample of ceramide was phosphorylated under identical conditions and developed in parallel. […] Quantification of ceramide 1-phosphate was carried out by autoradiography and densitometric scanning using Imaging Densitometer (Model GS-670; Bio-Rad, USA). Values are expressed either as arbitrary units (absorbance) or as percent change.
Lipid Extraction Approximately 1.0×10^6 cells were exposed to different cytokines in the presence or absence of antioxidants for different periods, and lipids were extracted according to the methods described by Welsh (1996).
Quantification of Sphingomyelin by High Performance TLC and Densitometry Sphingomyelin was separated from total lipid extracts by high performance TLC (LHPK plates from Whatman) as described by Ganser et al. (1988) for phospholipids with the following modification: the plate was overrun for 30 min during its development and was dried overnight in vacuum desiccator. Sphingomyelin was quantitated by densitometric scanning using Imaging Densitometer (model GS-670; Bio-Rad), and software was provided with the instrument by the manufacturer.
Quantification of Ceramide Levels by Diacylglycerol Kinase Assay Ceramide content was quantified essentially according to Priess et al. (1986) using diacylglycerol (DAG) kinase and [γ-^32P]ATP. Briefly, dried lipids were solubilized in 20 μl of an octyl β-D-glucoside/cardiolipin solution (7.5% octyl β-D-glucoside, 5 mM cardiolipin in 1 mM DTPA) by sonication in a sonicator bath. […] The labeled ceramide-1-phosphate was resolved with a solvent system consisting of methyl acetate:n-propyl alcohol:chloroform:methanol, 0.25% KCl in water:acetic acid (100:100:100:40:36:2). A standard sample of ceramide was phosphorylated under identical conditions and developed in parallel. […] Quantification of ceramide-1-phosphate was carried out by autoradiography and densitometric scanning using Imaging Densitometer (model GS-670; Bio-Rad). Values are expressed either as arbitrary units (absorbance) or as percent change.

[2] = test system: TNF-α production in rat resident macrophages; assay: LPS-/IFN-γ-induced TNF-α production (ELISA) in rat macrophages; assay type: cell-based
Procedure: Resident macrophages cultured in serum-free RPMI 1640 medium received 20 mM NAC or 100 μM PDTC 2 h before the addition of stimuli. When stimuli were used separately their concentrations were: LPS, 1.0 μg/ml; IFN-γ, 200 U/ml, and when they were used together, their concentrations were: LPS, 0.2 μg/ml; IFN-γ, 50 U/ml. Supernatants were collected 24 h after the addition of stimuli to measure TNF-α concentration using ELISA as described.

[3] = test system: NOS activity in rat resident macrophages; assay: NOS activity (L-citrulline from L-arginine) in homogenates of treated rat resident macrophages; assay type: cell-based; conditions: LPS 1.0 μg/ml, 24 h
Procedure: NOS activity was measured directly by production of L-[2,3,4,5-^3H]citrulline from L-[2,3,4,5-^3H] arginine (Feinstein et al., 1994a). […] Assays were carried out for 30 to 40 min and the production of L-[2,3,4,5-^3H] citrulline was linear. The reactions were stopped by addition of 800 μl of ice-cold 20 mM HEPES (pH 5.5) followed by addition of 2 ml of Dowex-50W equilibrated in the same buffer. The samples were then centrifuged and the concentration of L-[^3H]citrulline was determined in the supernatant by liquid scintillation counting.

iNOS = assay: Expression of iNOS protein (immunoblot) and mRNA (Northern) in rat primary astrocytes; assay type: cell-based; conditions: 10 μM forskolin or 0.2 μM H-89 15 min before cytokines / LPS
Procedure: (§1) Immunoblot analysis for iNOS Following 24 h incubation in the presence or absence of stimuli by different cytokines or LPS, macrophages were scraped off, washed with Hank's buffer, and homogenized in 50 mM Tris-HCl (pH 7.4) containing protease inhibitors (1 nM PMSF, 5 μg/ml aprotinin, 5 μg/ml pepstatin A, and 5 μg/ml leupeptin). After electrophoresis the proteins were transferred onto a nitrocellulose membrane, and the iNOS band was visualized by immunoblotting with antibodies against mouse macrophage iNOS and [^125I]-labeled protein A (Singh et al., 1988).
RNA isolation, Northern blot analysis, and reverse-transcriptase coupled polymerase chain reaction (RT-PCR) Stimulated peritoneal macrophages were taken out from culture dishes directly by adding Ultraspec-II RNA reagent (Biotecx Laboratories Inc.) and total RNA was isolated according to the manufacturer's protocol. For northern blot analyses, 20 μg of total RNA was electrophoresed on 1.2% denaturing formaldehyde-agarose gels, electrotransferred to Hybond-Nylon Membrane (Amersham) and hybridized at 68° C. with ^32P-labeled cDNA probe using Express Hyb hybridization solution (Clontech) as described by the manufacturer. […]; After hybridization filters were washed two to three times in solution I (2×SSC, 0.05% SDS) for 1 h at room temperature followed by solution II (0.1×SSC, 0.1% SDS) at 50° C. for another hour. The membranes were then dried and exposed to X-ray film (Kodak). The same filters were stripped and rehybridized with probes for GAPDH. The relative mRNA content for iNOS was measured after scanning the bands with a Biorad (Model GS-670) imaging densitometer.
as §1, with “of” for “of stimuli by”, “stimuli, cells” for “cytokines or LPS, macrophages”, “inhibitors.” for “inhibitors (1 nM PMSF, 5 μg/ml aprotinin, 5 μg/ml pepstatin A, and 5 μg/ml leupeptin).”, “A.” for “A (Singh et al., 1988).”
RNA isolation and Northern blot analysis Cells were taken out from culture dishes directly by adding Ultraspec-II RNA reagent (Biotecx Laboratories Inc.) and total RNA was isolated according to the manufacturer's protocol. For Northern blot analyses, 20 μg of total RNA was electrophoresed on 1.2% denaturing formaldehyde-agarose gels, electrotransferred to Hybond-Nylon Membrane (Amersham) and hybridized at 68° C. with ^32P-labeled cDNA probe using Express Hyb hybridization solution (Clontech) as described by the manufacturer. […]; After hybridization filters were washed two or three times in solution I (2×SSC, 0.05% SDS) for one hour at room temperature followed by solution II (0.1×SSC, 0.1% SDS) at 50° C. for another hour. The membranes were then dried and exposed with X-ray films (Kodak). The same filters were stripped and rehybridized with probes for GAPDH. The relative mRNA content for iNOS was measured after scanning the bands with a Biorad (Model GS-670) imaging densitometer.
as §1, with “After a” for “Following”, “of” for “of stimuli by”, “stimuli, cells” for “cytokines or LPS, macrophages”, “mM” for “nM”, “A.” for “A (Singh et al., 1988).”
RNA isolation and Northern blot analysis Cells were taken out from culture dishes directly by adding Ultraspec-II RNA reagent (Biotecx Laboratories Inc., Houston, Tex.), and total RNA was isolated according to the manufacturer's protocol. […]

[4] = test system: control human skin fibroblasts; assay: β-oxidation of lignoceric acid in control human skin fibroblasts; assay type: cell-based; conditions: 72 h
[5] = test system: IL-1β production in rat primary microglia; assay: LPS-induced IL-1β production (ELISA) in rat primary microglia; assay type: cell-based
Procedure: (§2) Determination of TNF-α and IL-1β in culture supernatants Cells were stimulated with LPS in serum-free media for 24 h in the presence or absence of forskolin or rolipram, and concentrations of TNF-α and IL-1β were measured in culture supernatants by using high-sensitivity enzyme-linked immunosorbent assay (R&D Systems, USA) according to the manufacturer's instructions.

[6] = test system: cultured skin fibroblasts of X-ALD; assay: VLCFA ratios (C26:0/C22:0, C24:0/C22:0) in X-ALD skin fibroblasts; assay type: cell-based, human; conditions: about 15 days of treatment
[7] = test system: TNF-α production in rat primary microglia; assay: LPS-induced TNF-α production (ELISA) in rat primary microglia; assay type: cell-based
Procedure: as §2

Which “degradation of sphingomyelin to ceramide / ceramide production” value [1] does the source give for `S=C(S)N1CCCC1` [PDTC, pyrrolidine dithiocarbamate] here?
The value was “potentially blocked the decrease in sphingomyelin as well as the increase in ceramide; also recorded: also inhibited cytokine-mediated degradation of SM to ceramide”.

And the “Inhibition (%)” value ([2]; LPS 0.2 μg/ml + IFN-γ 50 U/ml, 20 mM NAC or 100 μM PDTC 2 h before)?
The value was 96%.

And the TNF-α ([2]; LPS 0.2 μg/ml + IFN-γ 50 U/ml, 20 mM NAC or 100 μM PDTC 2 h before, 24 h)?
Its TNF-α is 1.4 ± 0.3 ng/24 h/mg protein.

And the “Inhibition (%)” value ([2]; LPS 1.0 μg/ml, 20 mM NAC or 100 μM PDTC 2 h before)?
Its value is 95%.

What about the TNF-α ([2]; LPS 1.0 μg/ml, 20 mM NAC or 100 μM PDTC 2 h before, 24 h) of the same compound?
Its TNF-α is 0.9 ± 0.1 ng/24 h/mg protein.

What about the TNF-α ([2]; antioxidant alone (20 mM NAC or 100 μM PDTC), no stimulus) of the same compound?
The TNF-α was 0.7 ± 0.2 ng/24 h/mg protein.

And the “LPS-induced NOS activity, L-citrulline formation” value [3]?
Its value is “inhibited LPS-induced NOS activity”.

How did the “cytokine-induced expression of iNOS” value (iNOS) turn out when `O=S(=O)(NCCNC/C=C/c1ccc(Br)cc1)c1cccc2cnccc12` [H-89] was run?
The value was “stimulated the cytokine-induced expression of iNOS”.

And the “Lignoceric acid β-oxidation” value ([4]; forskolin 4 μM, 1,9 dideoxy forskolin 4 μM, 8-Br-cAMP 50 μM, H-89 1 μM, myristoylated PKI 0.2 μM, Control 565.2 ± 48.3)?
Its value is 405.6 ± 44.1 pmol/h/mg protein.

What about the “LPS-induced production of IL-1β” value [5] of the same compound?
Its value is “stimulated the production of these proinflammatory cytokines in rat primary microglia”.

What about the “ratios of C26:0/C22:0 and C24:0/C22:0 / level of VLCFA” value [6] of the same compound?
Its value is “blocked the observed effect of forskolin on the level of VLCFA”.

What about the “LPS-induced production of TNF-α” value [7] of the same compound?
Its value is “stimulated the production of these proinflammatory cytokines in rat primary microglia”.

Which “Lignoceric acid β-oxidation” value ([4]; Lovastatin 5 μM, Mevastatin 5 μM, NaPA 5 mM, Control 570.2 ± 52.3) does the source give for `CC[C@H](C)C(=O)O[C@H]1CCC=C2C=C[C@H](C)[C@H](CC[C@@H]3C[C@@H](O)CC(=O)O3)[C@H]21` [Mevastatin] here?
The value was 889.6 ± 78.4 pmol/h/mg protein.
